Assay results as given in patent EP4800015A1, “AZABICYCLO DERIVATIVE AND PREPARATION METHOD THEREFOR, AND USE” (Zhejiang Hisun Pharmaceutical Co., Ltd., priority 2023, dated 2025).
pIC50: −log10 of the molar value. Read-outs that look alike come from different tables or passages of the source.

Target: T1, recombinant human WRN (Homo sapiens, UniProt Q14191)
T1 construct: purchased BPS 101264
Assay: Inhibition of WRN enzyme activity (ATPase), ADP-Glo Kinase Assay
Type: biochemical
Settings: WRN protein 5 nM, Flap 0.1 nM, ATP 30 µM
In short: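 Recombinant human WRN (5 nM) was preincubated with compound (1000–0.004 nM) for 15 min at room temperature. Flap26 5'-flap DNA (0.1 nM) and 30 µM ATP were then added for 10 min in Tris pH 7.5, MgCl2, NaCl, BSA, Pluronic buffer. ADP was detected by ADP-Glo luminescence, and IC50 was obtained by nonlinear regression versus a 0.1% DMSO control.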

T1 sequence (Q14191 whole entry): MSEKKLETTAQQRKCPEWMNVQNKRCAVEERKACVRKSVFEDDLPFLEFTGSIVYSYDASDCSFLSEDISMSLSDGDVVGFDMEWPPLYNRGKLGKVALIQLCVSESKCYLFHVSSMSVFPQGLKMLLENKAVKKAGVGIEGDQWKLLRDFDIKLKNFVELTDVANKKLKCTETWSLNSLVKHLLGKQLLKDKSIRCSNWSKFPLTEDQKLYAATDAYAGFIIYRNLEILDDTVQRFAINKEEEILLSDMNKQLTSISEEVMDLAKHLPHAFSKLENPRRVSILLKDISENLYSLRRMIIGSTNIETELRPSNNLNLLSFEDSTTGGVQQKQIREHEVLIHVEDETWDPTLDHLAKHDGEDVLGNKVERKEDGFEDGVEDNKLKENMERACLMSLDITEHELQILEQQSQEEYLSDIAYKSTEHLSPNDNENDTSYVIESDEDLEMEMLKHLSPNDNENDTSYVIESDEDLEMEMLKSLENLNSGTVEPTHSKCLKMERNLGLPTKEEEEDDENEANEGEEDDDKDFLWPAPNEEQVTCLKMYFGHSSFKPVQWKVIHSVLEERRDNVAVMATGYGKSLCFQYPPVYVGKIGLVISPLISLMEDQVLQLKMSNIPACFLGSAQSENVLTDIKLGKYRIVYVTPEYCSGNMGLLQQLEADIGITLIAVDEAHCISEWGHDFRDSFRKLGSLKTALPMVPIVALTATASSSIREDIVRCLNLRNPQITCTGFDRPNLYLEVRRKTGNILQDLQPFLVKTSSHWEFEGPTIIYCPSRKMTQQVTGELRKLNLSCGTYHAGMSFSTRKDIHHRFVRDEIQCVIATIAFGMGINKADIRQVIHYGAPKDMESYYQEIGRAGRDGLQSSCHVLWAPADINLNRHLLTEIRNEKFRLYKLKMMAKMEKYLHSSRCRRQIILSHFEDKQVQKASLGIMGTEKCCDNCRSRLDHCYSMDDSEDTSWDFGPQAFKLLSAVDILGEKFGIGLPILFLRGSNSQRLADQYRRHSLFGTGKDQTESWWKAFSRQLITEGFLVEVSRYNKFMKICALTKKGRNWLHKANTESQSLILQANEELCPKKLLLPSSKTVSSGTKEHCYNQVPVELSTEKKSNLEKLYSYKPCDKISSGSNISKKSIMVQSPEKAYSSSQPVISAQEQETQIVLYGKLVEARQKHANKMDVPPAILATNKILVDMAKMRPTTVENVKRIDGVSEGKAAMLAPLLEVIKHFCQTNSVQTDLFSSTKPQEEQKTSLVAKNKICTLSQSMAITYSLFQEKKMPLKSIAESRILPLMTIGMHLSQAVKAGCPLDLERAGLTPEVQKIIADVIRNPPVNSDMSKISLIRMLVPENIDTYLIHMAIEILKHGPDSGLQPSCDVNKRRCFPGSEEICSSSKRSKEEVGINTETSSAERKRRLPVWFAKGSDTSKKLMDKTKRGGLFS

| SMILES | pIC50 (read-out: IC50) | pIC50 |
| --- | --- | --- |
| CCc1c(N2CCN(C(=O)c3ncccc3O)CC2)c(=O)n2nc(-c3cc4ccccc4s3)nc2n1CC(=O)Nc1ccc(C(F)(F)F)cc1Cl [Example 79, 2-(2-(benzo[b]thiophen-2-yl)-5-ethyl-6-(4-(3-hydroxypicolinoyl)piperazin-1-yl)-7-oxo-[1,2,4]triazolo[1,5-a]pyrimidin-4(7H)-yl)-N-(2-chloro-4-(trifluoromethyl)phenyl)acetamide] | 7.00 to 9.00 |  |
| CCc1c(N2CCN(C(=O)c3ncnc(C)c3O)CC2)c(=O)n2nc(-c3ccc4c(c3)CCO4)cc2n1CC(=O)Nc1ccc(C(F)(F)F)cc1Cl [Example 82, N-(2-chloro-4-(trifluoromethyl)phenyl)-2-(2-(2,3-dihydrobenzofuran-5-yl)-5-ethyl-6-(4-(5-hydroxy-6-methylpyrimidine-4-carbonyl)piperazin-1-yl)-7-oxopyrazolo[1,5-a]pyrimidin-4(7H)-yl)acet amide] | 7.00 to 9.00 |  |
| C=C(c1ccc(OC)cc1)c1nc2n(CC(=O)Nc3ccc(C(F)(F)F)cc3Cl)c(CC)c(N3CCN(C(=O)c4ncnc(C)c4O)CC3)c(=O)n2n1 [Example 83, N-(2-chloro-4-(trifluoromethyl)phenyl)-2-(5-ethyl-6-(4-(5-hydroxy-6-methylpyrimidine-4-carbonyl)piperazin-1-yl)-2-(1-(4-methoxyphenyl)vinyl)-7-oxo-[1,2,4]triazolo[1,5-a]pyrimidin-4(7H)-yl) acetamide] |  | 7.00 to 9.00 |
| CCc1c(C2CCN(C(=O)c3ncnc(C)c3O)CC2)c(=O)n2nc(C3=CCCCCC3)nc2n1CC(=O)Nc1ccc(S(F)(F)(F)(F)F)cc1 [Example 92, 2-(2-(cyclohept-1-en-1-yl)-5-ethyl-6-(1-(5-hydroxy-6-methylpyrimidine-4-carbonyl)piperidin-4-yl)-7-oxo-[1,2,4]triazolo[1,5-a]pyrimidin-4(7H)-yl)-N-(4-(pentafluoro-λ^6-sulfaneyl)phenyl)acetamide] | 7.00 to 9.00 |  |
| CCc1c(N2CCCN(C(=O)c3ncnc(C)c3O)CC2)c(=O)n2nc(C3=CCCCCC3)nc2n1CC(=O)Nc1ccc(S(F)(F)(F)(F)F)cc1 [Example 94, 2-(2-(cyclohept-1-en-1-yl)-5-ethyl-6-(4-(5-hydroxy-6-methylpyrimidine-4-carbonyl)-1,4-diazepan-1-yl)-7-oxo-[1,2,4]triazolo[1,5-a]pyrimidin-4(7H)-yl)-N-(4-(pentafluoro-λ^6-sulfaneyl)phenyl)a cetamide] | 7.00 to 9.00 |  |
| CCc1c(N2CCC(NC(=O)c3ncnc(C)c3O)CC2)c(=O)n2nc(-c3ccc4c(c3)CCO4)nc2n1CC(=O)Nc1ccc(C(F)(F)F)cc1Cl [Example 108, N-(1-(4-(2-((2-chloro-4-(trifluoromethyl)phenyl)amino)-2-oxoethyl)-2-(2,3-dihydrobenzofuran-5-yl)-5-ethyl-7-oxo-4,7-dihydro-[1,2,4]triazolo[1,5-a]pyrimidin-6-yl)piperidin-4-yl)-5-hydroxy-6-methylpyrimidine-4-carboxamide] | 7.00 to 9.00 |  |
| CCc1c(N2CCN(C(=O)c3ncnc(C)c3O)CC2)c(=O)n2nc(C=C3CC(C(N)=O)C3)nc2n1CC(=O)Nc1ccc(C(F)(F)F)cc1Cl (centres unmarked) [Example 116, 3-((4-(2-((2-chloro-4-(trifluoromethyl)phenyl)amino)-2-oxoethyl)-5-ethyl-6-(4-(5-hydroxy-6-methylpyrimidine-4-carbonyl)piperazin-1-yl)-7-oxo-4,7-dihydro-[1,2,4]triazolo[1,5-a]pyrimidin-2-yl)methylene)cyclobutane-1-carboxamide] | 7.00 to 9.00 |  |
| CCc1c(N2CCN(C(=O)c3ncnc(C)c3O)CC2)c(=O)n2nc(C=C3CCCC3)nc2n1CC(=O)Nc1ccc(C(F)(F)F)cc1Cl [Example 117, N-(2-chloro-4-(trifluoromethyl)phenyl)-2-(2-(cyclopentylidenemethyl)-5-ethyl-6-(4-(5-hydroxy-6-methylpyrimidine-4-carbonyl)piperazin-1-yl)-7-oxo-[1,2,4]triazolo[1,5-a]pyrimidin-4(7H)-yl)a cetamide] | 7.00 to 9.00 |  |
| CCc1c(N2CCN(C(=O)c3ncnc(C)c3O)CC2)c(=O)n2nc(C3=CC4(C3)CC(C(N)=O)C4)nc2n1CC(=O)Nc1ccc(C(F)(F)F)cc1Cl (centres unmarked) [Example 119, 6-(4-(2-((2-chloro-4-(trifluoromethyl)phenyl)amino)-2-oxoethyl)-5-ethyl-6-(4-(5-hydroxy-6-methylpyrimidine-4-carbonyl)piperazin-1-yl)-7-oxo-4,7-dihydro-[1,2,4]triazolo[1,5-a]pyrimidin-2-yl)spiro[3.3]hept-5-ene-2-carboxamide] | 7.00 to 9.00 |  |
| CCc1c(N2CCN(C(=O)c3ncnc(C)c3O)CC2)c(=O)n2nc(C3=CC4C/C(=N/OC)CC4C3)nc2n1CC(=O)Nc1ccc(C(F)(F)F)cc1Cl (centres unmarked) [Example 122, (E)-N-(2-chloro-4-(trifluoromethyl)phenyl)-2-(5-ethyl-6-(4-(5-hydroxy-6-methylpyrimidine-4-carbonyl)piperazin-1-yl)-2-(5-(methoxyimino)-1,3a,4,5,6,6a-hexahydropentalen-2-yl)-7-oxo-[1,2,4]triazolo[1,5-a]pyrimidin-4(7H)-yl)acetamide] | 7.00 to 9.00 |  |

Further lines, with some results ahead:

| pIC50 (read-out: IC50) | SMILES | pIC50 |
| --- | --- | --- |
| 7.00 to 9.00 | CCc1c(N2CCN(C(=O)c3ncccc3O)CC2)c(=O)n2nc(-c3ccc4ccoc4c3)nc2n1CC(=O)Nc1ccc(S(F)(F)(F)(F)F)cc1 [Example 78, 2-(2-(benzofuran-6-yl)-5-ethyl-6-(4-(3-hydroxypicolinoyl)piperazin-1-yl)-7-oxo-[1,2,4]triazolo[1 ,5-a]pyrimidin-4(7H)-yl)-N-(4-(pentafluoro-λ^6-sulfaneyl)phenyl)acetamide] |  |
| 7.00 to 9.00 | CCc1c(N2CCN(C(=O)c3ncnc(C)c3O)CC2)c(=O)n2nc(-c3ccc4c(c3)OCC4)nc2n1CC(=O)Nc1ccc(C(F)(F)F)cc1Cl [Example 81, N-(2-chloro-4-(trifluoromethyl)phenyl)-2-(2-(2,3-dihydrobenzofuran-6-yl)-5-ethyl-6-(4-(5-hydroxy-6-methylpyrimidine-4-carbonyl)piperazin-1-yl)-7-oxo-[1,2,4]triazolo[1,5-a]pyrimidin-4(7H)-yl)acetamide] |  |
| 7.00 to 9.00 | CCc1c(N2CCN(C(=O)c3ncnc(C)c3O)CC2)c(=O)n2nc(-c3ccc4ccoc4c3)nc2n1CC(=O)Nc1ccc(SC(F)(F)F)cc1 [Example 90, 2-(2-(benzofuran-6-yl)-5-ethyl-6-(4-(5-hydroxy-6-methylpyrimidine-4-carbonyl)piperazin-1-yl)-7-oxo-[1,2,4]triazolo[1,5-a]pyrimidin-4(7H)-yl)-N-(4-((trifluoromethyl)thio)phenyl)acetamide] |  |
| > 9.00 | CCc1c(N2CCN(C(=O)c3ncnc(C)c3O)CC2)c(=O)n2nc(C3=CCCCCC3)nc2n1CC(=O)Nc1ccc(OC(F)(F)F)cc1 [Example 95, 2-(2-(cyclohept-1-en-1-yl)-5-ethyl-6-(4-(5-hydroxy-6-methylpyrimidine-4-carbonyl)piperazin-1-yl)-7-oxo-[1,2,4]triazolo[1,5-a]pyrimidin-4(7H)-yl)-N-(4-(trifluoromethoxy)phenyl)acetamide] |  |
| 7.00 to 9.00 | CCc1c(N2CCN(C(=O)c3ncnc(C)c3O)CC2)c(=O)n2nc(-c3ccc4scnc4c3)nc2n1CC(=O)Nc1ccc(C(F)(F)F)cc1Cl [Example 100, 2-(2-(benzo[d]thiazol-5-yl)-5-ethyl-6-(4-(5-hydroxy-6-methylpyrimidine-4-carbonyl)piperazin-1-yl)-7-oxo-[1,2,4]triazolo[1,5-a]pyrimidin-4(7H)-yl)-N-(2-chloro-4-(trifluoromethyl)phenyl)acetamide] |  |
| 7.00 to 9.00 | CCc1c(N2CCCN(C(=O)c3ncnc(C)c3O)CC2)c(=O)n2nc(-c3ccc4c(c3)CCO4)nc2n1CC(=O)Nc1ccc(C(F)(F)F)cc1Cl [Example 107, N-(2-chloro-4-(trifluoromethyl)phenyl)-2-(2-(2,3-dihydrobenzofuran-5-yl)-5-ethyl-6-(4-(5-hydroxy-6-methylpyrimidine-4-carbonyl)-1,4-diazepan-1-yl)-7-oxo-[1,2,4]triazolo[1,5-a]pyrimidin-4(7 H)-yl)acetamide] |  |
| 7.00 to 9.00 | CCc1c(N2CCN(C(=O)c3ncnc(C)c3O)CC2)c(=O)n2nc(-c3ccc4sc(C)nc4c3)nc2n1CC(=O)Nc1ccc(C(F)(F)F)cc1Cl [Example 110, N-(2-chloro-4-(trifluoromethyl)phenyl)-2-(5-ethyl-6-(4-(5-hydroxy-6-methylpyrimidine-4-carbonyl)piperazin-1-yl)-2-(2-methylbenzo[d]thiazol-5-yl)-7-oxo-[1,2,4]triazolo[1,5-a]pyrimidin-4(7H)-yl)acetamide] |  |
| 7.00 to 9.00 | CCc1c(N2CCN(C(=O)c3ncnc(C)c3O)CC2)c(=O)n2nc(-c3ccc4c(c3)ncn4C)nc2n1CC(=O)Nc1ccc(C(F)(F)F)cc1Cl [Example 111, N-(2-chloro-4-(trifluoromethyl)phenyl)-2-(5-ethyl-6-(4-(5-hydroxy-6-methylpyrimidine-4-carbonyl)piperazin-1-yl)-2-(1-methyl-1H-benzo[d]imidazol-5-yl)-7-oxo-[1,2,4]triazolo[1,5-a]pyrimidin-4(7H)-yl)acetamide] |  |
| 7.00 to 9.00 | CCc1c(N2CCN(C(=O)c3ncnc(C)c3O)CC2)c(=O)n2nc(-c3cnc4[nH]ncc4c3)nc2n1CC(=O)Nc1ccc(C(F)(F)F)cc1Cl [Example 114, N-(2-chloro-4-(trifluoromethyl)phenyl)-2-(5-ethyl-6-(4-(5-hydroxy-6-methylpyrimidine-4-carbonyl)piperazin-1-yl)-7-oxo-2-(1H-pyrazolo[3,4-b]pyridin-5-yl)-[1,2,4]triazolo[1,5-a]pyrimidin-4(7 H)-yl)acetamide] |  |
| 7.00 to 9.00 | CCc1c(N2CCN(C(=O)c3ncnc(C)c3O)CC2)c(=O)n2nc(-c3cccc4occc34)nc2n1CC(=O)Nc1ccc(C(F)(F)F)cc1Cl [Example 124, 2-(2-(benzofuran-4-yl)-5-ethyl-6-(4-(5-hydroxy-6-methylpyrimidine-4-carbonyl)piperazin-1-yl)-7-oxo-[1,2,4]triazolo[1,5-a]pyrimidin-4(7H)-yl)-N-(2-chloro-4-(trifluoromethyl)phenyl)acetamide] |  |
